Literature values in patent publication US20100179115A1, “USE OF A GLUCOCORTICOID RECEPTOR II ANTAGONIST TO TREAT DEPRESSION IN PATIENTS TAKING IL-2” (Corcept Therapeutics, Inc., priority 2006, published 2010).

How the values were obtained:
[1] = system: IL-1 induced memory deficits; settings: Song 2002
severe major depression = settings: four patients, one completed, no control group; Murphy 1993
[2] = in one study (Kawai)

CC#C[C@]1(O)CC[C@H]2[C@@H]3CCC4=CC(=O)CCC4=C3[C@@H](c3ccc(N(C)C)cc3)C[C@@]21C [Mifepristone, 17-beta-hydroxy-11-beta-(4-dimethyl-aminophenyl)-17-alpha-(1-propynyl)-estra-4,9-dien-3-one]
recovery of rats that did not recover from the deleterious effects of IL-1 ([1]; after one or two treatments): complete recovery
effect on learning and memory impairments associated with IL-1 administration ([1]; rats, i.c.v. injection immediately prior to IL-1): significant reduction in learning and memory impairments
effectiveness in treating depression (severe major depression): no clear evidence that RU486 was effective
fraction of the daily dose excreted in the urine [2]: less than 0.5%
